In data set [1] the test system is SK-MEL-28 melanoma cells. Briefly: MUH proliferation assay, SK-MEL-28. The format is cell-based, human. Conditions: SK-MEL-28, addition of 5 μM IM-54 to 6-PN/8-PN treatment. The protocol: (§1) FIG. 5: real time cell monitoring of BLM and SK-MEL-28 melanoma cells treated with 6-PN and 8-PN. (A) BML and SK-MEL-28 cells were treated 24 hours after seeding with different concentrations of 6-PN and 8-PN (20 μM, 50 μM and 100 μM) over a 104 hour time period. The cellular impedance was measured over the entire observation time using the xCELLigence™ SP system and is depicted by the cell index (CI). All CI-values were normalized shortly before the treatment started. […] As a positive control, Triton X-100 0.1% was used to induce cell death. Shown are the mean±SD of three independent experiments, each performed in triplicates (B, C). […] Shown are the mean±SD; the experiments were performed in quadruplicates. (D) The MUH proliferation assay was repeated unter the same treatment conditions on primary human fibroblasts (FF868) and melanocytes (HEM1).
(§2) The cells were seeded in triplicates in 96-well plates at a density of 2,500 cells per well in 50 μl medium (5×10^4 cells per milliliter). […] Plates were incubated at 37° C. for 1 hour and measured in a Fluoroskan II (Lab Systems, Helsinki, Finland) with a […]. The intensity of fluorescence indicates the number of viable cells in the wells. […]

Data set [2] deals with BLM melanoma cells. Briefly: MUH proliferation assay, BLM. The format is cell-based, human. The conditions noted are these: addition of 5 μM IM-54 to 6-PN/8-PN treatment. On the procedure: as §1, §2
Data set [3] relates to foreskin melanocytes (HEM1). Briefly: MUH proliferation assay, melanocytes. The format is cell-based. Conditions: 6-PN, 8-PN at higher concentrations (0.1 μM to 100 μM tested); TSA, SAHA 100 μM. The protocol:
as §1
(§3) The cells were seeded in triplicates in 96-well plates at a density of 2,500 cells per well in 50 μl medium (5×10^4 cells per milliliter). After 24 hours, the medium was replaced by medium containing 6-PN, 8-PN (dissolved in DMSO), TSA (dissolved in EtOH) or SAHA (dissolved in DMSO) at the concentrations to be tested with or without the addition of the necrosis inhibitor IM-54 at 5 μM (Calbiochem, Darmstadt, Germany). Cells treated with culture medium without or with DMSO served as controls. The assay was started following an incubation of 24 hours. […] Plates were incubated at 37° C. for 1 hour and measured in a Fluoroskan II (Lab Systems, Helsinki, Finland) with a […]. The intensity of fluorescence indicates the number of viable cells in the wells.
(§4) Next it was asked whether the PNs also influence the proliferation of benign cells. To this end, human fibroblasts (FF) and foreskin melanocytes (HEM1) were treated with the same concentrations of 6-PN and 8-PN, and proliferation was assessed using the proliferation assay as described above.

For data set [4], the system named is cleaved caspase-3 in SK-MEL-28 melanoma cells. The experiment in a line: Western blot for cleaved caspase-3. The format is cell-based, human. The conditions noted are these: SK-MEL-28, 100 μM. On the procedure: Western blot analysis of SK-MEL-28 melanoma cells treated with 100 μM of 6-PN, 8-PN, SAHA or TSA. EtOH and DMSO were applied as controls.
The following antibodies were used: Anti-Vinculin and Anti-Actin (1:5000, Sigma-Aldrich), Anti-Acetyl-Histon H3 (1:5000, Millipore, Billerica, USA), Anti-Caspase-3 (1:1000), Anti-AKT, Anti-pAKT, Anti-ERK, Anti-pERK, […], Anti-p70S6 Kinase, and Anti-pS6 protein (1:1000), all from Cell Signaling, Frankfurt, Germany), Anti-LC3 (1:5000, Sigma-Aldrich).
To further analyze the type of cell death induced by 6-PN and 8-PN, western blot analyses of SK-MEL-28 melanoma cells were performed 1, 2, 4, 12 and 24 hours after the treatment with 100 μM 6-PN and 8-PN. […] Upon PN treatment an inconsistent expression of oncogenic AKT and phospho-AKT (pAKT) was detected. […] Thus, there was an obvious discrepancy between the expression of pAKT and pS6P. Therefore it was first also looked for the expression of P70S6 kinase and its phosphorylated form. […] Therefore it was next asked whether the S6P could be phosphorylated by a different mechanism. In this respect, activated ERK can phosphorylate the p90 ribosomal S6 kinase (pP90). pP90 also phosphorylates the S6P (in addition to the P70S6 kinase). Since the pP70S6 kinase was absent in the used cells (SK-MEL-28 and BLM), it was hypothesized that the phosphorylation of the S6P was conducted via the pERK/pP90 pathway, independent from the P70S6 signalling. This hypothesis was supported by the parallel down-regulation of the bands for pP90 (Thr359/Ser363) and pS6P 12 hours after the treatment with 6-PN, and the reappearance of both bands after 24 hours (FIG. 8). […] The western blot experiments were repeated with BLM cells under the same treatment conditions and yielded similar results (not shown).
A general note: A western blot detects proteins with antibodies after separation by electrophoresis.

The subject of data set [5] is primary human fibroblasts (FF868). The experiment in a line: MUH proliferation assay, fibroblasts. The data set is classed as cell-based. The conditions noted are these: 6-PN, 8-PN 0.1 μM to 100 μM; TSA, SAHA 100 μM. The protocol: as §1, §3, §4
The subject of data set [6] is BLM melanoma cells. The experiment in a line: PI/Annexin V staining FACS, BLM. The data set is classed as cell-based, human. The conditions noted are these: 10 μM, 6 hours treatment. On the procedure: (§5) (A) Cell cycle FACS analyses of PI stained BLM and SK-MEL-28 melanoma cells. 100 μM of 8-PN-induced a G2 arrest in both cells. (B) FACS analyses of BLM and SK-MEL-28 melanoma cells treated with 100 μM 6-PN or 8-PN and stained for annexin V/PI; staurosporin was used as control for apoptosis induction and DMSO as vehicle control. […] (C) BLM and SK-MEL-28 melanoma cells were treated with 100 μM of PNs; TSA, SAHA and EMSO were used as controls.
(§6) To further analyze the possibility of apoptosis induction, an extensive apoptosis assay was performed on SK-MEL-28 melanoma cells 4 hours after treatment with 100 μM 6-PN or 8-PN (FIG. 9). […] This was verified by FACS cell cycle analyses to screen for a possible increase of the sub-G1 fraction of cells (apoptotic cells) or for the induction of a G2 arrest (inhibition of proliferation). […] To further differentiate between the induction of apoptosis and/or necrosis an PI/Annexin V staining of SK-MEL-28 and BLM cells was performed 4 hours and 24 hours after the treatment with 6-PN or 8-PN; 10 μM staurosporin (6 hours treatment) was used as positive control for the induction of apoptosis; DMSO treatment was used as vehicle control. The cells were then analyzed by FACS.

Data set [7] relates to SK-MEL-28 melanoma cells. The experiment in a line: PI/Annexin V staining FACS, SK-MEL-28. The format is cell-based, human. The conditions noted are these: SK-MEL-28, 10 μM, 6 hours treatment. On the procedure: as §5, §6

For the compound `CCCCCNC1=C(c2cn(C)c3ccccc23)C(=O)N(C)C1=O` [IM-54], the “decrease of cell death rates at higher PN concentrations” value with SK-MEL-28 melanoma cells [1] and in the data set with BLM melanoma cells [2] was “up to 35%” throughout.
`O=C(CCCCCCC(=O)Nc1ccccc1)NO` [SAHA, suberoyl anilide hydroxamic acid]: in data set [3], the melanocyte proliferation result is “no reduced proliferation”. Besides, in data set [4], the “band for cleaved caspase-3” value is “no additional band”. Moreover, the fibroblast proliferation entry in data set [5] is “no reduced proliferation”.
For the compound `CC(/C=C/C(=O)NO)=C\[C@@H](C)C(=O)c1ccc(N(C)C)cc1` [TSA, trichostatin A], the melanocyte proliferation entry in data set [3] is “no reduced proliferation”. In addition, in data set [4], the “band for cleaved caspase-3” value was “no additional band”. For the same compound, in data set [5], the fibroblast proliferation result is “no reduced proliferation”.
`CN[C@@H]1C[C@H]2O[C@@](C)([C@@H]1OC)n1c3ccccc3c3c4c(c5c6ccccc6n2c5c31)C(=O)NC4` [staurosporin, reference compound]: the “annexin V positive (apoptotic) cells” value in the data set on BLM melanoma cells [6] (DMSO control 4.1%) is given as 17.4%; in the data set on SK-MEL-28 melanoma cells [7] (DMSO control 2.5%), 13.9%. In addition, the “PI positive (nectrotic) cells” value was determined as 16.6% in the data set on BLM melanoma cells [6] (DMSO control 9.1%) and 9.3% in the data set on SK-MEL-28 melanoma cells [7] (DMSO control 7.9%).
